Like-named read-outs stand apart in the source and are kept apart here.
Legend:
[1] = target: Acetylcholinesterase (AChE) (Electrophorus electricus, UniProt O42275); assay: biochemical; type: biochemical; conditions: mean ± standard deviation, triplicate; '-' = no inhibitory activity
[2] = previously tested; read-out: DPPH IC50; cited from earlier work
[3] = target: butyrylcholinesterase (BChE) (Equus caballus, UniProt P81908); assay: biochemical; type: biochemical; conditions: mean ± standard deviation, triplicate
Chain of butyrylcholinesterase (BChE) (P81908 whole entry): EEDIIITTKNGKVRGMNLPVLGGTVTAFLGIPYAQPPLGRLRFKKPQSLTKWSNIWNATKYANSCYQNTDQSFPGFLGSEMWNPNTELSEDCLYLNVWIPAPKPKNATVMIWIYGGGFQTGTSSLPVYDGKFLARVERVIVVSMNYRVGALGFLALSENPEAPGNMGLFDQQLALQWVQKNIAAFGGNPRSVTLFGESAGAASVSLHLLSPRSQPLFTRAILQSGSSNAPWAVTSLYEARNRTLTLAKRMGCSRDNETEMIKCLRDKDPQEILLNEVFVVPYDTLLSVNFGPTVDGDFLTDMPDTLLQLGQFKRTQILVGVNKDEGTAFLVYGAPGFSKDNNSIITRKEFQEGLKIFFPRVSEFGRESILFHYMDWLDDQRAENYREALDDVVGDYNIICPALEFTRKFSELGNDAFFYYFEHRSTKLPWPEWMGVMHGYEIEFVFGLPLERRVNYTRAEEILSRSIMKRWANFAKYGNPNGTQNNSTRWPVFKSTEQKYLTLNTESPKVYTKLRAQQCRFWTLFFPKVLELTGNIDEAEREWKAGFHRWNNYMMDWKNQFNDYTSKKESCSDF

[4] = DPPH radical scavenging assay; conditions: 30 min at 25 °C; '-' = did not capture the radical
Description: Antioxidant activity of the tested compounds was measured in terms of hydrogen donating or radical scavenging ability using the stable radical 2,2′-diphenyl-1-picrylhydrazyl (DPPH). The 50 μL of various concentrations of tested solutions (5 μM–1000 μM) were placed in a cuvette, 1 mL of ethanolic solution of DPPH was added, and the final DPPH concentration was kept constant (c = 8 × 10^−4 M). The mixture was incubated for 30 min at 25 °C. […] All determinations were performed in triplicate. The concentrations of tested compounds were expressed as final concentrations. Inhibition of DPPH expressed in percentage was calculated according to the equation:(2) Inhibition (%)=AC(0)−AC(t)/AC(0)·100 where AC(0) is the absorbance of the control at t = 0 min, and AC(t) is the absorbance of the antioxidant at t = 30 min. Data were used to calculate the IC50 value by a nonlinear fit of compound concentration values vs. inhibition percentage.

[5] = Fe3+ complex formation constants by spectrophotometric titration (PSEQUAD); type: physicochemical; conditions: for Apparent formation constant lgK'FeL, Fe^3+ + HL ⇌ FeL^2+ + H^+: 1:1 complex; for Formation constant lgKFeL, Fe^3+ + L^− ⇌ FeL^2+: sum of apparent formation constant and protonation constant
Description: Since Fe^3+ ions strongly hydrolyze, acidic solutions were applied for the spectrophotometric titrations to determine the complex formation constants. Both types of titrations were carried out: increasing the iron(III) concentration at constant ligand concentration and increasing ligand concentration at constant CFe(III).
(§1) The third one in this equilibrium system must be a complex between the previous two species. Detailed fitting studies by application of the PSEQUAD program confirmed the existence of a complex with a 1:1 (FeL^2+) composition. Furthermore, the apparent formation constant of these species (for the reaction Fe^3+ + HL ⇌ FeL^2+ + H^+) and the individual spectrum of the species could be estimated by this procedure. […] The apparent formation constant determined from this spectrum series and that regarding the titration with the ligand was lgK’FeL = 4.75 ± 0.10. Using this apparent formation constant, the molar fractions of the free Fe^3+ and the 1:1 complex could be calculated as functions of the (protonated) ligand concentration (pHL), as shown by the inset of Figure 12a. Since the spectrophotometric titration was carried out in an acidic solution, in order to estimate the formation constant for the Fe^3+ + L^− ⇌ FeL^2+ reaction, the protonation constant of the deprotonated ligand (L^−) was also determined (by potentiometric titration, starting from the fully deprotonated form at pH = 10, Figure 13), lgK1 = 7.81 ± 0.15. The sum of the apparent formation constant and the protonation constant gives the equilibrium constant regarding the reaction above (lgKFeL = 12.56 ± 0.15).
(§2) The protonation and complex formation constants were determined similarly for the other three compounds. The corresponding figures can be found in the Supplementary Materials (Figures S67 and S68 for cis-2, Figures S69 and S70 for cis-4, and Figures S71 and S72 for trans-1). In the case of trans-1, two protonation steps were observed due to the two OH groups. For calculating the formation constant, lgK2 was taken into account, corresponding to the proton in the OH group on the pyranone ring. This can be exchanged by the Fe^3+ ion easier than the other proton in the phenolic moiety.
Two titration series were used to determine the stability constants of equilibrium systems containing Fe^3+ and ligand. The iron(III) content was increased at constant ligand content, the ligand concentration was increased at constant Fe(III) content, and the spectral changes were recorded with a Specord S600 spectrophotometer (Analytic Jena GmbH, Jena, Germany) in the 190–900 nm wavelength range. […] The two series were evaluated together using PSEQUAD software in the 210–430 nm range.

[6] = Protonation constants by potentiometric titration with spectrophotometric detection; type: physicochemical; conditions: for Protonation constant lgK1: titration from pH 10, for trans-1 first of two protonation steps
Source text: as §1, §2
A 0.01–0.01 M phosphate–borate–acetate buffer solution was used for potentiometric titration. A 50 cm^3 beaker was filled with 25 cm^3 of buffer solution containing the appropriate amount of ligand, and the pH was adjusted to 10.0 by adding 2 M NaOH solution. The pH was determined using a Consort C3010 multi-parameter analyzer (Consort bvba, Turnhout, Belgium) equipped with a combined glass electrode. The solution was circulated with an IKA PA-SF (IKA Labortechnik, Staufen, Germany) peristaltic pump through a Hellma (176.000-QS 10 mm) flow through the cuvette. Titration was carried out with 6 M H2SO4 solution. The spectra were recorded with a Specord S600 spectrophotometer after pH stabilization.

Chain of Acetylcholinesterase (AChE) (O42275 24-633): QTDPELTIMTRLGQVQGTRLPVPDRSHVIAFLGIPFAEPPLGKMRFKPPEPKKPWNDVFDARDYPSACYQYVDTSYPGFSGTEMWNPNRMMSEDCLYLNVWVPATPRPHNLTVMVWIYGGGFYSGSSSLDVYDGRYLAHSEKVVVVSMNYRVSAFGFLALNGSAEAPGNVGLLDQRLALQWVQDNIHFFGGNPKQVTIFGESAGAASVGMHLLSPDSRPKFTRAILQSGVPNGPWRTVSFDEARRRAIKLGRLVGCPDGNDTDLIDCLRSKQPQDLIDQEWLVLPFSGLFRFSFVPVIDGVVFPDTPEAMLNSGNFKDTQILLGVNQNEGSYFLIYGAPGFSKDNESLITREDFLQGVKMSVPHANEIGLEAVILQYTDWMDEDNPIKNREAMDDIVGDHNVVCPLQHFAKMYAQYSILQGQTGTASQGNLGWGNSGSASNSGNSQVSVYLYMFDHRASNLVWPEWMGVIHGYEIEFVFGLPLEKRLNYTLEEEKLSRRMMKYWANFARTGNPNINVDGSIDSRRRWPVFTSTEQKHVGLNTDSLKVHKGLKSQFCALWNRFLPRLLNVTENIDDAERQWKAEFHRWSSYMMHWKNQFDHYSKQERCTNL

SMILES	IC50 [1] [µM]	IC50 [2] [µM]	IC50 [3] [µM]	IC50 [4] [µM]	Apparent formation constant lgK'FeL, Fe^3+ + HL ⇌ FeL^2+ + H^+ ([5]; acidic solution)	Protonation constant lgK1 [6]	Formation constant lgKFeL, Fe^3+ + L^− ⇌ FeL^2+ [5]	DPPH IC50 [4]	AChE IC50 [1]	BChE IC50 [3]	Formation constant lgKFeHL, Fe^3+ + H2L ⇌ FeHL^2+ + H^+ ([5]; acidic solution, footnote a)	Formation constant lgKFeHL, Fe^3+ + HL^− ⇌ FeHL^2+ ([5]; calculated with lgK2, footnote b)	Protonation constant lgK2 ([6]; trans-1: proton of the OH group on the pyranone ring)
Oc1ccc(/C=C/c2cccs2)c(O)c1 [III]	46.6 ± 8.3	26.8	5.3 ± 1.8	–	–	–	–	–	–	–	–	–	–
Oc1ccccc1/C=C/c1cccs1 [II]	15.7 ± 1	159	4.6 ± 0.1	–	–	–	–	–	–	–	–	–	–
O=c1cc(/C=C\c2ccccc2C(F)(F)F)occ1O [cis-2, (Z)-5-hydroxy-2-(2-(trifluoromethyl)styryl)-4H-pyran-4-one]	> 1000	–	458 ± 30.2	> 1000	4.38 ± 0.20	7.95 ± 0.10	–	–	–	–	–	–	–
O=c1cc(/C=C\c2ccc(Cl)cc2Cl)occ1O [cis-4, (Z)-2-(2,4-dichlorostyryl)-5-hydroxy-4H-pyran-4-one]	1000 ± 10.1	–	638 ± 25.8	> 1000	4.16 ± 0.10	7.99 ± 0.15	12.15 ± 0.15	–	–	–	–	–	–
O=c1cc(C=Cc2cccs2)occ1O [compound 7, 5-hydroxy-2-(2-(thiophen-2-yl)vinyl)-4H-pyran-4-one]	–	–	–	–	–	–	–	completely missed any tested bioactivity	completely missed any tested bioactivity	completely missed any tested bioactivity	–	–	–
O=c1cc(/C=C/c2ccccc2O)occ1O [trans-1, (E)-5-hydroxy-2-(2-hydroxystyryl)-4H-pyran-4-one]	> 1000	–	601 ± 34.5	251 ± 45.6	–	8.9 ± 0.20	–	–	–	–	4.38 ± 0.20 ^a	11.6 ± 0.2 ^b	7.25 ± 0.20
O=c1cc(/C=C/c2ccsc2)occ1O [trans-6, (E)-5-hydroxy-2-(2-(thiophen-3-yl)vinyl)-4H-pyran-4-one]	> 1000	–	426 ± 41.8	> 1000	4.75 ± 0.10	7.81 ± 0.15	12.56 ± 0.15	–	–	–	–	–	–

From paper PMC9573353 (Molecules, 2022)
